The values below come from US10153510B2, “Non-aqueous redox flow batteries including 3,7-perfluoroalkylated phenothiazine derivatives” (University of Kentucky Research Foundation, priority 2014, dated 2018).

Structures are written as SMILES. Values after ≈ are worked out from the molar mass of the structure shown. Values joined by “and” are separate entries in the source; they are usually repeats but may differ in a detail not shown here. Equal values may be shown once. Read-outs that look alike come from different tables or passages of the source.

Data set [1] can be described thus: Stability rating of phenothiazine derivatives (Table 2 compilation). The data set is classed as physicochemical. The source says: (§1) Table 2 includes a compilation of data related to phenothiazine derivatives overcharge data of phenothiazine compounds as well as whether the compounds are practical for use in redox flow batteries. Some phenothiazine derivatives have solubility and stability sufficient for overcharge protection, they are not sufficiently soluble to be practical for redox flow applications. As exemplified in Table 2, EPT and DClEPT are practical for overcharge protection but are not practical for redox flow.
(§2) The data includes overcharge data at 100% overcharge for EPT, DBrEPT, DClEPT, BCF3EPT and DCNEPT from Ergun, et al. Chem. Comm., 2014, 50, 5339-5341. (30) Overcharge data at constant overcharge for EPT and BCF3EPT is derived from the studies described in Kaur et al., J. Materials Chemistry A, 2014, 2, 18190-18193. (29) Overcharge data at 100% overcharge for PT, MPT and EPT provided in Table 2 was derived from studies described in Narayana et al. ChemPhysChem, 2015, 16, 1179-1189. (32) Overcharge results for BCF3CF2EPT and BCF3(4-CF3C6H4)PT are provided in FIGS. 10 and 11, respectively.

Data set [2] in a line: Solubility of phenothiazine derivatives (Table 2 compilation). Type of data set: physicochemical. Particulars: electrolyte not stated.
Source text: as §1, §2

A short description of data set [3]: UV-vis stability of neutral and radical-cation forms (bulk electrolysis). Type of data set: physicochemical. Particulars: for stability of neutral compound by UV-vis: 0.2 mM and 5 mM in LiBF4/PC, over 5 h. The procedure:
(§3) Electrochemical experiments were performed in an argon-filled glovebox at room temperature. Cyclic voltammetry (CV) measurements were performed in a three-electrode cell with a 3 mm diameter glassy carbon working electrode, Pt wire counter electrode, and Li foil reference electrode; voltammograms were taken of 0.2 M LiBF4 in PC containing 5 mM analyte using a CH Instruments 605E potentiostat. For UV-vis spectra of neutral compounds, catholytes were dissolved at 0.2 mM or 5 mM in 0.2 M LiBF4 in PC in glovebox and were removed in special optical glass cuvettes (Starna) after sealing with Teflon caps. The solutions were subsequently monitored for 5 h on an Agilent 8453 diode-array spectrometer.
Bulk electrolysis experiments were performed at 5 mM analyte in 0.2 M LiBF4 in PC with a Pt coiled-wire working electrode and a Li foil reference electrode, as well as a Pt wire counter electrode suspended in solution in a separate fitted glass tube. Electrolysis potentials were applied for 84 min in the glovebox, after which the solutions were diluted and removed from the glovebox in special optical glass cuvettes (Starna) sealed with Teflon caps. The solutions were subsequently monitored for 5 hours on an Agilent 8453 diode-array spectrometer.
Additionally, a compound that is stable in ambient conditions may be sensitive to electrolyte components, as was previously observed for a phenothiazine derivative with a tert-butyl group at the N position.(31) To compare the stability of the neutral and radical-cation forms of BCF3EPT to those of DBBB, UV-vis spectra were collected for both of the oxidation states of both compounds in LiBF4/PC. […] To simulate the charged species of each catholyte, the radical cation was generated by bulk electrolysis.

The conditions of data set [4]: 1.2 M LiPF6 in EC/EMC; cited from earlier work.
A short description of data set [5]: Maximum solubility of electro-active species in 0.2 M LiBF4 in PC. Particulars: organic solvent or mixture, thermodynamic from solid, room temperature. The data set is classed as physicochemical. The procedure: as §3
To study the behavior of the new catholyte BCF3EPT relative to DBBB, a set of batteries with the same concentration of electro-active species as the reported DBBB/TMeQ battery (0.05 M), as well as with the highest concentration possible for all three species, were identified for comparison. The maximum solubilities for DBBB, TMeQ and BCF3EPT in 0.2 M LiBF4 in PC were ca. 0.18 M, 0.37 M, and 1.2 M, respectively. […] Batteries were also fabricated at the highest concentration possible for BCF3EPT and TMeQ (0.35 M), beyond that which was possible for DBBB. By this measure, two sets of batteries were able to be tested at the same concentrations, including one near the limiting concentration of DBBB, and a third that allowed for analysis of a battery near the solubility limit of TMeQ.

The nature of data set [6]: Cyclic voltammetry, half wave redox potentials. Type of data set: physicochemical. The following applies: 20 mV/s; for Low potential event vs. Li+/0: 5 mM analyte in 0.2 M LiBF4 in PC; for High potential event vs. Li+/0: 5 mM in 0.2 M LiBF4 in PC, (a) irreversible oxidation potential estimated from forward wave and estimated reverse wave. The procedure: as §3
Cyclic voltammetry was used to characterize the electrochemical behavior of BCF3EPT and to characterize DBBB and TMeQ for comparison with reported data. The individual redox events for these electro-active materials can be used to estimate the open-circuit voltage (OCV) of an ORFB containing each catholyte-anolyte pair. LiBF4 (0.2M) was used in propylene carbonate (PC) for these experiments to allow for direct comparison with the previously reported DBBB/TMeQ battery. The voltammograms of BCF3EPT show a reversible first oxidation at a potential of 3.9 V vs. Li+/0, which corresponds to generation of the radical cation, followed by an irreversible second oxidation at ca. 4.4 V vs. Li+/0 (FIG. 2a) corresponding to formation of the dication. […] No peaks corresponding to the reduction of the neutral compounds was observed during the anodic scans of BC3EPT and DBBB in this electrolyte. […] The redox potentials of BCF3EPT and DBBB are similar, thus it is contemplated that they will give similar cell voltages when coupled with TMeQ in an ORFB.

[7] abbreviates: organic solvent or mixture, read-out: Solubility.

As to `CCN1c2ccc(C#N)cc2Sc2cc(C#N)ccc21` [BCF3(4-CF3C6H4)PT], in data set [1], the Stability result was “High”.

For the compound `CCN1c2ccc(C(F)(F)C(F)(F)F)cc2Sc2cc(C(F)(F)C(F)(F)F)ccc21` [BCF3CF2EPT], in data set [1], the Stability result was “High”.

One may read the Solubility as the dissolved amount per volume that the medium holds. A word on the solubility: it is the dissolved amount per volume that the medium holds. For `CCN1c2ccc(C(F)(F)F)cc2Sc2cc(C(F)(F)F)ccc21` [BCF3EPT, 3,7-bis(trifluoromethyl)-N-ethylphenothiazine], the Solubility in data set [2] (setting [7]) is 1500 to 2000 mM (≈ 545 to 727 mg/mL). The “stability of neutral compound by UV-vis” value in data set [3] is “neither compound showed measurable signs of change”. Besides, in data set [3] (0.2 M LiBF4 in PC, 5 h period), the “stability of radical cation (UV-vis, comparison)” value is “significantly more stable”. In addition, in data set [4], the “stability relative to DDB” value was “higher stability”. Besides, the Stability entry in data set [1] is “high”. Moreover, the solubility at 1 h in data set [5] was roughly 1200 mM (≈ 436 mg/mL). The “Low potential event vs. Li+/0” value in data set [6] is 3.9 V.

`COCCOc1cc(C(C)(C)C)c(OCCOC)cc1C(C)(C)C` [DBBB, 2,5-di-tert-butyl-1,4-bis(2-methoxyethoxy)benzene]: the “stability of neutral compound by UV-vis” value in data set [3] is on record as “neither compound showed measurable signs of change”. Moreover, in data set [5], the solubility at 1 h was roughly 180 mM (≈ 60.9 mg/mL). In data set [6], the “Low potential event vs. Li+/0” value was found to be 4.0 V; the “High potential event vs. Li+/0” value was 4.7 V and 4.7^(a) V.

Take `CCN1c2ccc(Br)cc2Sc2cc(Br)ccc21` [DBrEPT]: the Solubility in data set [2] came to 100 mM (≈ 38.5 mg/mL). Moreover, the Stability entry in data set [1] is reported as “high”.

Consider `CCN1c2ccc(C#N)cc2Sc2cc(C#N)ccc21` [DCNEPT], for which the Solubility entry in data set [2] was “low”. In data set [1], the Stability result was “high”.

`CCN1c2ccc(Cl)cc2Sc2cc(Cl)ccc21` [DClEPT] registered a Solubility in data set [2] of 100 mM (≈ 29.6 mg/mL). The Stability entry in data set [1] was “High”.

Turning to `CCN1c2ccc([N+](=O)[O-])cc2Sc2cc([N+](=O)[O-])ccc21` [DNO2EPT], the Solubility result in data set [2] is given as “Low”.

For `CCN1c2ccccc2Sc2ccccc21` [EPT], the Solubility in data set [2] (setting [7]) amounted to 100 mM (≈ 22.7 mg/mL). Moreover, the Stability result in data set [1] is listed as “High”.

In data set [2], `CN1c2ccccc2Sc2ccccc21` [MPT] had a Solubility of 100 mM (≈ 21.3 mg/mL). Moreover, the Stability result in data set [1] is “high”.

`c1ccc2c(c1)Nc1ccccc1S2` [PT] registered a Solubility in data set [2] of 100 mM (≈ 19.9 mg/mL). Moreover, the Stability result in data set [1] is “Low”.

`Cc1ccc2nc(C)c(C)nc2c1` [TMeQ, 2,3,6-trimethyl quinoxaline]: the solubility at 1 h in data set [5] was roughly 370 mM (≈ 63.7 mg/mL). Further, in data set [6], the “Low potential event vs. Li+/0” value is on record as 2.5 V and the “High potential event vs. Li+/0” value is listed as 2.8 V.
